Tested on: NQO1
Assay: NQO1/NADH/NAC cell-free reaction in 96-well plate: oxygen consumption rate (Seahorse XF Analyzer) and hydrogen peroxide produced (absorption at 240 nm)
Type: biochemical
Source text: Referring now to FIG. 1C-1D, data graphs are provided illustrating the results of one sample experiment for hydrogen peroxide produced using the one or more embodiments of the present disclosure described herein. In particular, FIG. 1C illustrates the generation of superoxide radicals by using the Oxygen Consumption Rate (OCR) with respect to time as a proxy for one experiment. Here, the experiment comprised using a Seahorse Bioscience XF Analyzer® instrument to measure the OCR with respect to time. In addition, a 96-well plate was used wherein each well was filled with 140 microliters of 100 units of NQO1, NADH, 4 micromolar NAC (β-Lacaphone), 50 millimolar Tris-HCl at pH 7 wherein the solutions were kept at atmospheric temperature. […] Further, at the conclusion of this 7-hour period, approximately […] hydrogen peroxide was produced and measured. […] Specifically, referring to FIG. 1D, the hydrogen peroxide concentration was measured using a spectrophotometric absorption of 240 nm corresponding to hydrogen peroxide.

SMILES: CC1(C)CCC2=C(O1)c1ccccc1C(=O)C2=O [β-lapachone]
- resulting hydrogen peroxide concentration (7-hour run cycle, spectrophotometric absorption 240 nm): > 30%
- Oxygen Consumption Rate (OCR) with respect to time, proxy for generation of superoxide radicals (100 units NQO1, NADH, 4 micromolar NAC, 50 millimolar Tris-HCl pH 7, atmospheric temperature, 7-hour period, measured every 2 minutes, versus DMSO vehicle control wells): dramatically increased and sustained OCR
- hydrogen peroxide produced and measured (at conclusion of 7-hour period, 100 units NQO1, NADH, 4 micromolar NAC, 50 millimolar Tris-HCl pH 7, spectrophotometric absorption 240 nm): approximately 12 molar
